“And” between values parts separate entries of the source, which are not always exact repeats. Equal entries are not always repeated.
Experiments:
Colon cancer organoid [1] = assay: (§1) Image-based profiling of donated chemical probes and chemogenomic kinase set in O09 CRC organoid. Image analysis is performed on the sum area metric, and the data were normalized to the DMSO control. After imaging the organoid viability is measured using the OneGloEX Luciferase Assay System. The normalized viability data and sum area are reported.; format: functional, Homo sapiens; design: dose or concentration left out as unconfirmed
Colon cancer organoid [2] = assay: as §1, with “O21” for “O09”; format: functional, Homo sapiens; design: dose or concentration left out as unconfirmed

CCN1CCN(c2ccc(Nc3cc(N(C)C(=O)Nc4c(Cl)c(OC)cc(OC)c4Cl)ncn3)cc2)CC1 [INFIGRATINIB]
Cell Viability (Colon cancer organoid [1]; Replication number 1): 23.1721% and 22.7147% | Cell Viability (Colon cancer organoid [1]; Replication number 2): 19.8415% and 27.805% | Cell Viability (Colon cancer organoid [2]; Replication number 1): 70.5365% and 84.7387% | Cell Viability (Colon cancer organoid [2]; Replication number 2): 76.3419% and 87.5135%

CC[C@@H]1C(=O)N(C)c2cnc(Nc3ccc(C(=O)NC4CCN(C)CC4)cc3OC)nc2N1C1CCCC1 [BI-2536]
Cell Viability (Colon cancer organoid [1]; Replication number 1): 16.4106% and 42.6367% | Cell Viability (Colon cancer organoid [1]; Replication number 2): 20.1367% and 38.0631% | Cell Viability (Colon cancer organoid [2]; Replication number 1): 25.994% and 61.8815% | Cell Viability (Colon cancer organoid [2]; Replication number 2): 31.9179% and 66.7866%

CCn1cc(-c2ccnc3[nH]c(-c4cccc(CN(C)C)c4)cc23)c(-c2ccc(NC(=O)N(C)C)cc2)n1 [GSK-1070916]
Cell Viability (Colon cancer organoid [1]; Replication number 1): 22.2316% and 23.9614% | Cell Viability (Colon cancer organoid [1]; Replication number 2): 25.9157% and 31.5843% | Cell Viability (Colon cancer organoid [2]; Replication number 1): 76.6328% and 71.3589% | Cell Viability (Colon cancer organoid [2]; Replication number 2): 81.5265% and 81.1803%

CC(=O)NCC(=O)N1[C@@H]2CC[C@H]1c1ccc(Nc3ncc(C(F)(F)F)c(NC4CCC4)n3)cc12 [PF-03814735]
Cell Viability (Colon cancer organoid [1]; Replication number 2): 33.7645% and 14.7244% | Cell Viability (Colon cancer organoid [2]; Replication number 1): 48.6382% and 56.6718% | Cell Viability (Colon cancer organoid [2]; Replication number 2): 62.4502% and 65.7393%

C=CC(=O)N1CCC([C@@H]2CCNc3c(C(N)=O)c(-c4ccc(Oc5ccccc5)cc4)nn32)CC1 [ZANUBRUTINIB]
Cell Viability (Colon cancer organoid [1]; Replication number 1): 34.0987% and 32.6632% | Cell Viability (Colon cancer organoid [1]; Replication number 2): 34.2694% and 25.3214% | Cell Viability (Colon cancer organoid [2]; Replication number 1): 87.382% and 84.1812% | Cell Viability (Colon cancer organoid [2]; Replication number 2): 88.1261% and 101.331%

CCCCN(CCCC)C(=O)CN1C[C@@H](c2cc(OC)c3c(c2)OCO3)[C@H](C(=O)O)[C@H]1CC(C)(C)CCC.Cl
Cell Viability (Colon cancer organoid [1]; Replication number 1): 42.4098% and 26.0419% | Cell Viability (Colon cancer organoid [1]; Replication number 2): 31.2719% and 16.5316% | Cell Viability (Colon cancer organoid [2]; Replication number 1): 63.1584% and 74.5149% | Cell Viability (Colon cancer organoid [2]; Replication number 2): 47.1745% and 81.1225%

COc1cc(Nc2ncc3c(n2)-c2ccc(Cl)cc2C(c2c(F)cccc2OC)=NC3)ccc1C(=O)O [ALISERTIB]
Cell Viability (Colon cancer organoid [1]; Replication number 1): 29.1632% and 19.7233% | Cell Viability (Colon cancer organoid [1]; Replication number 2): 34.5212% and 21.703% | Cell Viability (Colon cancer organoid [2]; Replication number 1): 99.741% and 113.91% | Cell Viability (Colon cancer organoid [2]; Replication number 2): 76.2077% and 81.6074%

COc1ccc(Oc2cc(NCCC(F)(F)F)c3ncc(-c4ccc(C(=O)NC5CC5)c(C)c4)n3n2)c(F)c1F [BAY-1217389]
Cell Viability (Colon cancer organoid [1]; Replication number 1): 16.1792% and 31.9152% | Cell Viability (Colon cancer organoid [1]; Replication number 2): 23.535% and 27.535% | Cell Viability (Colon cancer organoid [2]; Replication number 1): 50.4052% and 66.3415% | Cell Viability (Colon cancer organoid [2]; Replication number 2): 55.0801% and 82.9075%

CCc1cccc(CC)c1NC(=O)c1nn(C)c2c1CCc1cnc(Nc3ccc(C(=O)NC4CCN(C)CC4)cc3OC(F)(F)F)nc1-2
Cell Viability (Colon cancer organoid [1]; Replication number 1): 78.2687% and 77.2947% | Cell Viability (Colon cancer organoid [1]; Replication number 2): 115.279% and 90.9735% | Cell Viability (Colon cancer organoid [2]; Replication number 1): 41.8512% and 75.8188% | Cell Viability (Colon cancer organoid [2]; Replication number 2): 49.725% and 74.2713%

CCS(=O)(=O)Nc1ccc(Oc2ccc(F)cc2F)c(-c2cn(C)c(=O)c3[nH]ccc23)c1 [MIVEBRESIB]
Cell Viability (Colon cancer organoid [1]; Replication number 1): 15.7549% and 20.0077% | Cell Viability (Colon cancer organoid [1]; Replication number 2): 18.5163% and 23.3766% | Cell Viability (Colon cancer organoid [2]; Replication number 1): 39.7622% and 88.1777% | Cell Viability (Colon cancer organoid [2]; Replication number 2): 36.307% and 74.642%

C[C@@H](Oc1cc(-n2cnc3ccc(CN4CCN(C)CC4)cc32)sc1C(N)=O)c1ccccc1C(F)(F)F [GSK-461364]
Cell Viability (Colon cancer organoid [1]; Replication number 1): 31.4361% and 40.8914% | Cell Viability (Colon cancer organoid [1]; Replication number 2): 27.3036% and 34.2838% | Cell Viability (Colon cancer organoid [2]; Replication number 1): 31.4353% and 81.9512%

N#CC1(c2ccccn2)CCN(Cc2cc(C(=O)O)c(=O)n3ccccc23)CC1 [MSD-M1PAM]
Cell Viability (Colon cancer organoid [1]; Replication number 1): 40.5981% and 75.2157% | Cell Viability (Colon cancer organoid [1]; Replication number 2): 57.8261% and 79.5004% | Cell Viability (Colon cancer organoid [2]; Replication number 1): 89.7237% and 93.8523% | Cell Viability (Colon cancer organoid [2]; Replication number 2): 106.363% and 84.1264%

CCCCNc1ncc(-c2ccc(CN3CCOCC3)cn2)c(N[C@H]2CC[C@H](O)CC2)n1
Cell Viability (Colon cancer organoid [1]; Replication number 1): 13.1667% and 26.0723% | Cell Viability (Colon cancer organoid [1]; Replication number 2): 15.6613% and 21.4116% | Cell Viability (Colon cancer organoid [2]; Replication number 1): 74.2042% and 87.3045% | Cell Viability (Colon cancer organoid [2]; Replication number 2): 78.7125% and 74.949%

Cn1cc(CNCC2CCN(c3ncc(C(=O)NO)cn3)CC2)c2ccccc21 [QUISINOSTAT]
Cell Viability (Colon cancer organoid [1]; Replication number 1): 11.6805% and 13.0062% | Cell Viability (Colon cancer organoid [1]; Replication number 2): 13.8403% and 11.4602%

— ChEMBL document CHEMBL5724558, “Image-based profiling of drug vulnerabilities in CRC organoids” (2024)
